Experiment in all cases: NCI tumour cell line growth inhibition, 48 h
For assay [1], the system named is CCRF-CEM leukemia.
For assay [2], the system named is HCT-15 colon.
Assay [3] relates to KM12 colon.
In assay [4] the test system is M14 melanoma.
In assay [5] the test system is MALME-3M melanoma.
Assay [6] deals with NCI-H23 lung.
For assay [7], the system named is NCI-H460 lung.
The test system of assay [8] is NCI/ADR-RES ovarian.
Assay [9] concerns OVCAR-5 ovarian.
The subject of assay [10] is OVCAR-8 ovarian.
Assay [11] relates to RXF 393 renal.
Assay [12] concerns SF-295 CNS.
The test system of assay [13] is SK-MEL-2 melanoma.
The subject of assay [14] is SK-MEL-28 melanoma.
Assay [15] relates to SK-MEL-5 melanoma.
Assay [16] has as its system SNB-19 CNS.
The test system of assay [17] is EKVX NSCLC.
Assay [18] deals with HT29 colon.
In assay [19] the test system is LOX IMVI melanoma.
Assay [20] deals with OVCAR-4 ovarian.

The record followed here is PubChem BioAssay (NCI).

Molecules are shown by their SMILES.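 All cell lines were grown in 96-well plates and treated with compound for 48 hours. Definition used: TGI = concentration required for complete inhibition of growth.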 Where a SMILES comes first, the peptide text is derived from it. [ ]: non-standard residue; d: D form. The star is where a group is joined. Iva = CC[C](C)(N)C(=O)O; Boc = CC(C)(C)OC(=O)*; X52 = C1CCC(=NO*)C1 Where only a bound is given, the exact number is not on record here.

For `CCC(C)(NC(=O)C(C)NC(=O)OC(C)(C)C)C(=O)NC(C)C(=O)NC(C)(CC)C(=O)ON=C1CCCC1` (configuration not stated) (Boc-A[Iva]A[Iva]-X52; configuration not given here), the TGI in assay [1], in [2], in assay [3], in [4], in [5] and in assay [6] was > 100 µM in each case. Further, the TGI in assay [7], in assay [8], in assay [9], in [10], in assay [11] and in assay [12] was > 100 µM throughout. Besides, the TGI in assay [13], in assay [14], in assay [15] and in assay [16] was > 100 µM throughout.
`CCCC[C@H]1[C@@H](OCOc2ccccc2)COC(=O)N1[C@H](C)c1ccccc1`: the TGI in [1] is 68.8 µM; in [17], 85.2 µM; in assay [2], 44.6 µM; in assay [18], > 59 µM; in [3], 33.5 µM; in assay [19] it was 70.7 µM. The TGI in [4] is 31.2 µM; in [5], 33.5 µM; in assay [6], > 58.2 µM; in [7], 32.1 µM; in assay [8] it was > 66.1 µM; in [20], 43.9 µM. In addition, the TGI in assay [9] is 43.6 µM; in assay [10] it was > 100 µM; in assay [11] it was 47.6 µM; in [12] it was 50.6 µM; in [13], 33.3 µM; in assay [14], 71.1 µM. Also, the TGI is 16.9 µM in assay [15] and > 55 µM in assay [16].
For `O=P1(Oc2ccc(Cl)cc2Cl)Oc2ccc3ccccc3c2-c2c(ccc3ccccc23)O1`, the TGI in assay [1] is > 89.6 µM; in assay [17] it was > 67.3 µM; in assay [2], > 77.1 µM; in assay [18] it was > 100 µM; in assay [3], > 90.4 µM; in assay [19], 53.9 µM. Further, the TGI in assay [5] is 46.4 µM; in [6] it was 75.8 µM; in assay [7], > 90.6 µM; in assay [8] it was > 100 µM; in assay [20] it was 94.2 µM; in [9], > 100 µM. Moreover, the TGI in assay [10] was > 100 µM; in assay [11] it was 34.7 µM; in [12], > 94.7 µM; in [13], 36 µM; in [14] it was > 85.4 µM; in assay [15] it was > 100 µM. Moreover, the TGI in assay [16] stood at 82.8 µM.
For `COc1ccc2cc3[nH]c(=O)cc(O)c3cc2c1OC`, the TGI in assay [1], in assay [17], in assay [2], in [18], in assay [3] and in assay [19] was > 100 µM each time. The TGI in assay [4], in [5], in assay [6], in assay [7], in assay [20] and in assay [9] was > 100 µM in each case. The TGI in [10], in assay [11], in assay [12], in assay [13], in assay [14] and in assay [16] was > 100 µM in each case.
For `O=[N+]([O-])c1ccc(N=Nc2c(O)ccc3ccccc23)c([N+](=O)[O-])c1`, the TGI is > 64.6 µM in [1]; > 100 µM in assay [17]; > 100 µM in assay [2]; > 100 µM in assay [18]; > 100 µM in [3]; > 100 µM in assay [19]. For the same molecule, the TGI in assay [4], in assay [5], in assay [6], in [7], in [8] and in assay [20] was > 100 µM each time. Moreover, the TGI in assay [9], in [10], in assay [11], in assay [12], in assay [13] and in assay [14] was > 100 µM in each case. Besides, the TGI in [15] and in assay [16] was > 100 µM throughout.
In the case of `C1CSCCSCCSCCSC1`, the TGI in assay [17], in assay [2], in assay [18], in [3], in [19] and in assay [4] was > 100 µM throughout. Further, the TGI in assay [6], in assay [7], in assay [8], in assay [20], in assay [9] and in assay [10] was > 100 µM each time. The TGI in assay [11], in assay [12], in [13], in assay [14], in assay [15] and in assay [16] was > 100 µM in each case.
In the case of `COc1ccc(C2SCC(=O)N2NC(=O)c2ccncc2)cc1F` (configuration not stated), the TGI in [2], in assay [18], in assay [3], in assay [19], in assay [4] and in assay [5] was > 100 µM throughout. Further, the TGI in assay [6], in assay [7], in [20], in assay [9], in [11] and in assay [12] was > 100 µM each time. For the same molecule, the TGI in assay [13], in assay [14], in assay [15] and in [16] was > 100 µM in each case.
For `CCCCN1CN2C(=O)C(C(=O)OCC)C(=O)c3sc4nc(SC)nc1c4c32` (configuration not stated), the TGI in assay [1] is 83.9 µM; in [17], 32.2 µM; in assay [2], 38 µM; in assay [18], 40.5 µM; in assay [3], 36 µM; in assay [19], 38.1 µM. In addition, the TGI in assay [4] amounted to 40.1 µM; in assay [5] it was 30.2 µM; in [6], 33.6 µM; in assay [7], 40.2 µM; in [8] it was 37.1 µM; in assay [20] it was 33.4 µM. Also, the TGI in assay [9] is 32.6 µM; in assay [10] it was 36.8 µM; in assay [11] it was 38.5 µM; in [12], 30.8 µM; in assay [13], 36.6 µM; in [14], 34 µM. Moreover, the TGI in [15] amounted to 24.8 µM; in assay [16], 34.8 µM.
As to `COc1ccc(-c2c3c(cc4cc5c(cc24)OCO5)C(=O)OC3)cc1OC`, the TGI was > 52.1 µM in [1]; > 75.6 µM in assay [17]; 18.3 µM in [2]; 6.55 µM in assay [18]; > 36 µM in [3]; 0.0663 µM in [19]. In addition, the TGI in [4] was 1.16 µM; in assay [5], 2.92 µM; in [6], 26.5 µM; in [7] it was 15.9 µM; in assay [8], 22.4 µM; in [20], > 100 µM. Also, the TGI is > 100 µM in [9]; 35.8 µM in [11]; 0.922 µM in assay [12]; 4.91 µM in assay [13]; 9.38 µM in assay [14]; 0.68 µM in assay [15]. The molecule also registered a TGI in assay [16] of 52 µM.
Regarding `O=C(Nc1ccccc1)c1cc2ccccc2c(N=Nc2ccc([N+](=O)[O-])cc2)c1O`, the TGI was 46.4 µM in assay [1]; > 100 µM in assay [17]; > 100 µM in [2]; > 100 µM in [18]; > 100 µM in [3]; > 100 µM in assay [19]. The TGI in assay [4], in assay [5], in assay [6], in assay [8], in assay [20] and in assay [9] was > 100 µM in each case. The TGI in assay [10], in [11], in assay [12], in assay [13], in assay [14] and in assay [15] was > 100 µM in each case. Also, the TGI in assay [16] was > 100 µM.
Turning to `CCCCCCCCCCCCCCCCCCN(C)C(COC)COP(=O)([O-])OCC[N+](C)(C)C` (configuration not stated), the TGI in assay [1] amounted to 7.41 µM; in assay [17], 34.2 µM; in [18] it was 9.44 µM; in [3] it was 3.2 µM; in assay [19], 18.8 µM; in assay [4], 13.7 µM. In addition, the TGI was 29.5 µM in [5]; 23.9 µM in assay [6]; 4.38 µM in assay [7]; > 58.3 µM in assay [8]; 12.3 µM in assay [20]; 6.32 µM in assay [9]. The TGI amounted to 26.3 µM in assay [10]; 3.12 µM in assay [11]; 10.3 µM in [12]; 35.6 µM in assay [13]; 36.7 µM in assay [14]; 29.9 µM in assay [15]. In addition, the TGI in assay [16] was 14.1 µM.
In the case of `COc1cc2cc3c4cc(OC)c(OC)cc4cc[n+]3cc2cc1OC`, the TGI in assay [1], in [17], in [2], in assay [18], in assay [3] and in [19] was > 100 µM each time. For the same molecule, the TGI in assay [5], in assay [6], in [7], in assay [8], in [20] and in assay [9] was > 100 µM in each case. Besides, the TGI in assay [10], in [11], in assay [12], in assay [13], in [14] and in assay [15] was > 100 µM throughout. The TGI in assay [16] is > 100 µM.
As for `COc1ccc2nccc(SCC(=O)O)c2c1`, the TGI in [1], in assay [17], in assay [2], in assay [18], in assay [3] and in assay [19] was > 100 µM throughout. Moreover, the TGI in assay [4], in assay [6], in assay [7], in [8], in [20] and in assay [9] was > 100 µM in each case. Moreover, the TGI in [10], in assay [11], in assay [12], in assay [13], in [14] and in [15] was > 100 µM throughout. In assay [16], the TGI is > 100 µM.
